From PubChem BioAssay (NCI)
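Values below derive from 48-hour exposures of cells grown in 96-well plates, with endpoints linearly interpolated between the two concentrations bracketing the appropriate inhibition level. TGI: total growth inhibition.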

Legend:
Assay in all cases: inhibition of tumour cell growth, NCI panel, 48 h
NCI-H522 lung = system: NCI-H522 lung
SK-MEL-2 melanoma = system: SK-MEL-2 melanoma
HCT-116 colon = system: HCT-116 colon
SF-268 CNS = system: SF-268 CNS
M14 melanoma = system: M14 melanoma
OVCAR-8 ovarian = system: OVCAR-8 ovarian
OVCAR-4 ovarian = system: OVCAR-4 ovarian
SF-295 CNS = system: SF-295 CNS
SF-539 CNS = system: SF-539 CNS
DU-145 prostate = system: DU-145 prostate
MCF7 breast = system: MCF7 breast
BT-549 breast = system: BT-549 breast
MDA-MB-231 breast = system: MDA-MB-231 breast
HCT-15 colon = system: HCT-15 colon
HT29 colon = system: HT29 colon
COLO 205 colon = system: COLO 205 colon
A549 NSCLC = system: A549 NSCLC
HCC-2998 colon = system: HCC-2998 colon
NCI/ADR-RES ovarian = system: NCI/ADR-RES ovarian
UACC-62 melanoma = system: UACC-62 melanoma
T-47D breast = system: T-47D breast
UACC-257 melanoma = system: UACC-257 melanoma
SW-620 colon = system: SW-620 colon
SK-OV-3 ovarian = system: SK-OV-3 ovarian
A498 renal = system: A498 renal
MALME-3M melanoma = system: MALME-3M melanoma
OVCAR-5 ovarian = system: OVCAR-5 ovarian
TK-10 renal = system: TK-10 renal
HOP-62 NSCLC = system: HOP-62 NSCLC
K-562 leukemia = system: K-562 leukemia
RPMI-8226 leukemia = system: RPMI-8226 leukemia
HOP-92 NSCLC = system: HOP-92 NSCLC
SN12C renal = system: SN12C renal
SNB-75 CNS = system: SNB-75 CNS
NCI-H23 lung = system: NCI-H23 lung
UO-31 renal = system: UO-31 renal
MOLT-4 leukemia = system: MOLT-4 leukemia
CCRF-CEM leukemia = system: CCRF-CEM leukemia
NCI-H226 lung = system: NCI-H226 lung
ACHN renal = system: ACHN renal
MDA-MB-435 = system: MDA-MB-435
SK-MEL-28 melanoma = system: SK-MEL-28 melanoma
OVCAR-3 ovarian = system: OVCAR-3 ovarian
SK-MEL-5 melanoma = system: SK-MEL-5 melanoma
EKVX NSCLC = system: EKVX NSCLC
KM12 colon = system: KM12 colon
NCI-H460 lung = system: NCI-H460 lung
RXF 393 renal = system: RXF 393 renal
LOX IMVI melanoma = system: LOX IMVI melanoma
PC-3 prostate = system: PC-3 prostate
HS 578T breast = system: HS 578T breast
MDA-N = system: MDA-N
SNB-19 CNS = system: SNB-19 CNS
786-0 renal = system: 786-0 renal
CAKI-1 renal = system: CAKI-1 renal
U251 CNS = system: U251 CNS
SR leukemia = system: SR leukemia
IGROV1 ovarian = system: IGROV1 ovarian
HL-60(TB) leukemia = system: HL-60(TB) leukemia

Structure (SMILES): CN(C)/C=N/S(=O)(=O)c1nn2c(C=O)c(-c3ccccc3)nc2s1
- TGI (NCI-H522 lung): 15.8 µM
- TGI (SK-MEL-2 melanoma): > 100 µM
- TGI (HCT-116 colon): 13.1 µM
- TGI (SF-268 CNS): > 100 µM
- TGI (M14 melanoma): 14.8 µM
- TGI (OVCAR-8 ovarian): > 53.4 µM
- TGI (OVCAR-4 ovarian): > 89.9 µM
- TGI (SF-295 CNS): > 100 µM
- TGI (SF-539 CNS): > 100 µM
- TGI (DU-145 prostate): > 100 µM
- TGI (MCF7 breast): > 100 µM
- TGI (BT-549 breast): > 26.4 µM
- TGI (MDA-MB-231 breast): > 74.9 µM
- TGI (HCT-15 colon): 45.6 µM
- TGI (HT29 colon): 4.58 µM
- TGI (COLO 205 colon): > 38.6 µM
- TGI (A549 NSCLC): > 82.4 µM
- TGI (HCC-2998 colon): > 56.5 µM
- TGI (NCI/ADR-RES ovarian): > 76.6 µM
- TGI (UACC-62 melanoma): 54.4 µM
- TGI (T-47D breast): 61.4 µM
- TGI (UACC-257 melanoma): > 63.3 µM
- TGI (SW-620 colon): 20.2 µM
- TGI (SK-OV-3 ovarian): > 100 µM
- TGI (A498 renal): > 100 µM
- TGI (MALME-3M melanoma): 35.6 µM
- TGI (OVCAR-5 ovarian): > 100 µM
- TGI (TK-10 renal): > 77.1 µM
- TGI (HOP-62 NSCLC): > 100 µM
- TGI (K-562 leukemia): > 61.7 µM
- TGI (RPMI-8226 leukemia): 42.9 µM
- TGI (HOP-92 NSCLC): > 100 µM
- TGI (SN12C renal): 49.7 µM
- TGI (SNB-75 CNS): > 100 µM
- TGI (NCI-H23 lung): > 83 µM
- TGI (UO-31 renal): 19.5 µM
- TGI (MOLT-4 leukemia): 32.1 µM
- TGI (CCRF-CEM leukemia): 9.8 µM
- TGI (NCI-H226 lung): > 57.4 µM
- TGI (ACHN renal): 21.1 µM
- TGI (MDA-MB-435): > 100 µM
- TGI (SK-MEL-28 melanoma): 29.8 µM
- TGI (OVCAR-3 ovarian): 24.1 µM
- TGI (SK-MEL-5 melanoma): 27.9 µM
- TGI (EKVX NSCLC): > 100 µM
- TGI (KM12 colon): > 79.7 µM
- TGI (NCI-H460 lung): > 51.4 µM
- TGI (RXF 393 renal): 49 µM
- TGI (LOX IMVI melanoma): > 89 µM
- TGI (PC-3 prostate): > 89 µM
- TGI (HS 578T breast): > 100 µM
- TGI (MDA-N): 52.5 µM
- TGI (SNB-19 CNS): > 100 µM
- TGI (786-0 renal): 21.3 µM
- TGI (CAKI-1 renal): 8.68 µM
- TGI (U251 CNS): > 31.6 µM
- TGI (SR leukemia): 21.3 µM

Structure (SMILES): CC[C@@]1(O)C(=O)OCc2c1cc1n(c2=O)Cc2c-1nc1ccccc1c2/C=N/NC(=O)C[N+](C)(C)C
- TGI (NCI-H522 lung): > 100 µM
- TGI (SK-MEL-2 melanoma): > 100 µM
- TGI (HCT-116 colon): > 100 µM
- TGI (SF-268 CNS): > 63 µM
- TGI (M14 melanoma): 20.5 µM
- TGI (OVCAR-8 ovarian): > 100 µM
- TGI (OVCAR-4 ovarian): > 100 µM
- TGI (SF-295 CNS): > 33.3 µM
- TGI (SF-539 CNS): 2.61 µM
- TGI (DU-145 prostate): 22 µM
- TGI (MCF7 breast): > 100 µM
- TGI (BT-549 breast): > 100 µM
- TGI (MDA-MB-231 breast): > 100 µM
- TGI (HCT-15 colon): > 100 µM
- TGI (HT29 colon): > 100 µM
- TGI (COLO 205 colon): > 100 µM
- TGI (A549 NSCLC): > 100 µM
- TGI (HCC-2998 colon): > 100 µM
- TGI (NCI/ADR-RES ovarian): > 62.3 µM
- TGI (UACC-62 melanoma): 3.66 µM
- TGI (T-47D breast): 30.4 µM
- TGI (IGROV1 ovarian): > 100 µM
- TGI (UACC-257 melanoma): > 100 µM
- TGI (SW-620 colon): > 100 µM
- TGI (SK-OV-3 ovarian): > 100 µM
- TGI (A498 renal): > 65.1 µM
- TGI (MALME-3M melanoma): > 100 µM
- TGI (OVCAR-5 ovarian): > 100 µM
- TGI (TK-10 renal): > 100 µM
- TGI (K-562 leukemia): > 100 µM
- TGI (RPMI-8226 leukemia): > 100 µM
- TGI (HOP-92 NSCLC): > 49.3 µM
- TGI (SN12C renal): > 100 µM
- TGI (SNB-75 CNS): 9.74 µM
- TGI (NCI-H23 lung): 6.27 µM
- TGI (UO-31 renal): 9.72 µM
- TGI (MOLT-4 leukemia): 16.3 µM
- TGI (NCI-H226 lung): 31.8 µM
- TGI (MDA-MB-435): > 100 µM
- TGI (SK-MEL-28 melanoma): > 100 µM
- TGI (OVCAR-3 ovarian): > 100 µM
- TGI (SK-MEL-5 melanoma): 7.98 µM
- TGI (EKVX NSCLC): > 100 µM
- TGI (KM12 colon): > 100 µM
- TGI (NCI-H460 lung): 21.5 µM
- TGI (RXF 393 renal): 11.7 µM
- TGI (LOX IMVI melanoma): > 37.6 µM
- TGI (PC-3 prostate): > 100 µM
- TGI (HS 578T breast): > 100 µM
- TGI (MDA-N): > 100 µM
- TGI (SNB-19 CNS): > 94.2 µM
- TGI (786-0 renal): > 55.7 µM
- TGI (CAKI-1 renal): > 100 µM
- TGI (U251 CNS): > 35.8 µM
- TGI (SR leukemia): 0.922 µM

Structure (SMILES): CC(C)(C)OC(=O)NCC(=O)NC1CC=CCC1NC(=O)CNC(=O)OC(C)(C)C (stereo not drawn)
- TGI (NCI-H522 lung): > 100 µM
- TGI (HCT-116 colon): > 100 µM
- TGI (SF-268 CNS): > 100 µM
- TGI (OVCAR-8 ovarian): > 100 µM
- TGI (OVCAR-4 ovarian): > 100 µM
- TGI (SF-295 CNS): > 100 µM
- TGI (SF-539 CNS): > 100 µM
- TGI (DU-145 prostate): > 100 µM
- TGI (MCF7 breast): > 100 µM
- TGI (BT-549 breast): > 100 µM
- TGI (MDA-MB-231 breast): > 100 µM
- TGI (HCT-15 colon): > 100 µM
- TGI (HT29 colon): > 100 µM
- TGI (COLO 205 colon): > 100 µM
- TGI (A549 NSCLC): > 100 µM
- TGI (HL-60(TB) leukemia): > 100 µM
- TGI (HCC-2998 colon): > 100 µM
- TGI (NCI/ADR-RES ovarian): > 100 µM
- TGI (UACC-62 melanoma): > 100 µM
- TGI (T-47D breast): > 100 µM
- TGI (IGROV1 ovarian): > 100 µM
- TGI (UACC-257 melanoma): > 100 µM
- TGI (SW-620 colon): > 100 µM
- TGI (SK-OV-3 ovarian): > 100 µM
- TGI (A498 renal): > 100 µM
- TGI (MALME-3M melanoma): > 100 µM
- TGI (OVCAR-5 ovarian): > 100 µM
- TGI (TK-10 renal): > 100 µM
- TGI (HOP-62 NSCLC): > 100 µM
- TGI (K-562 leukemia): > 100 µM
- TGI (RPMI-8226 leukemia): > 100 µM
- TGI (HOP-92 NSCLC): > 100 µM
- TGI (SN12C renal): > 100 µM
- TGI (SNB-75 CNS): > 100 µM
- TGI (NCI-H23 lung): > 100 µM
- TGI (UO-31 renal): > 100 µM
- TGI (MOLT-4 leukemia): > 100 µM
- TGI (CCRF-CEM leukemia): > 100 µM
- TGI (NCI-H226 lung): > 100 µM
- TGI (ACHN renal): > 100 µM
- TGI (MDA-MB-435): > 100 µM
- TGI (SK-MEL-28 melanoma): > 100 µM
- TGI (OVCAR-3 ovarian): > 100 µM
- TGI (SK-MEL-5 melanoma): > 100 µM
- TGI (KM12 colon): > 100 µM
- TGI (NCI-H460 lung): > 100 µM
- TGI (RXF 393 renal): > 100 µM
- TGI (LOX IMVI melanoma): > 100 µM
- TGI (PC-3 prostate): > 100 µM
- TGI (HS 578T breast): > 100 µM
- TGI (MDA-N): > 100 µM
- TGI (SNB-19 CNS): > 100 µM
- TGI (786-0 renal): > 100 µM
- TGI (CAKI-1 renal): > 100 µM
- TGI (U251 CNS): > 100 µM
- TGI (SR leukemia): > 100 µM
